The text below walks through data of US20170107294A1, “ANTI-CD14 ANTIBODIES AND USES THEREOF” (Nordlandssykehuset HF, priority 2014, published 2017).

For one assay, the target named is factor D (Homo sapiens, UniProt P00746). As to conditions: cited from earlier work.
The target in a further assay is human C1q (Homo sapiens, UniProt P02745+P02746+P02747). The assay is described as follows: ELISA for C1q binding. As for the experimental part:
Ninety-six-well plates (Nunc, Roskilde, Denmark) were coated with serial dilution of the Abs (6.0-0.09 mg/ml) and incubated overnight at 4° C. followed by washing three times with PBS/Tween (pH 7.4). The wells were blocked with 4% skimmed milk (Neogen Europe, Auchincruive, U.K.) for 1 h at room temperature and then washed in PBS/Tween (pH 6.0). Purified hFcRn-GST or pFcRn-GST (1 mg/ml) were diluted in 4% skimmed milk in PBS/Tween (pH 6.0) and preincubated with an HRP-conjugated anti-GST Ab (GE Healthcare U.K., Buckinghamshire, U.K.) diluted 1:5000 and added to the wells. The plates were incubated for 1 h at room temperature and washed with PBS/Tween (pH 6.0). Bound receptor was detected by adding 100 ml of 3,39,5,59-tetramethylbenzidine substrate (Calbiochem-Novabiochem, Nottingham, U.K.). The absorbance was measured at 450 nm using a Sunrise TECAN spectrophotometer. The assay described above was also performed using PBS/Tween (pH 7.4) in all steps. The same setup was used with GST-fused versions of hFcgRI, hFcgRIIa (allotype His131), hFcgRIIb, hFcgRIIIa (allotype Val158), and hFcgRIIIb (1 mg/ml each). In addition, a biotinylated human C1q (hC1 q; 4 mg/ml) preparation was incubated with the Abs and detected using ALP-conjugated streptavidin (GE Healthcare). Absorbance was measured at 405 nm.

Sequence of factor D (P00746 26-253): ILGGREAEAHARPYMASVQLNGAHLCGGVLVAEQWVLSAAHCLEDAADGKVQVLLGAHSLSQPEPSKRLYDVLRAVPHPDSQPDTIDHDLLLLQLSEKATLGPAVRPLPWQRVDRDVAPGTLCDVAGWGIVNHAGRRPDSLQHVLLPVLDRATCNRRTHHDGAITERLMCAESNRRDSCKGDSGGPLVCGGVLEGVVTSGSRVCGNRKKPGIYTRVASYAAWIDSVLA
Sequence of human C1q (P02745 23-245): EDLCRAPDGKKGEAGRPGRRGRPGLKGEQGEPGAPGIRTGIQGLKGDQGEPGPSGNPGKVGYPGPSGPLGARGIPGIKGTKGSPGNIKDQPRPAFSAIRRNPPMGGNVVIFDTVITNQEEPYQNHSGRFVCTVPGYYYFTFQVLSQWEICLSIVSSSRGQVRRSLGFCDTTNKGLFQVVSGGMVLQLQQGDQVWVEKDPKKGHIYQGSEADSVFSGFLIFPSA
Sequence of human C1q (P02746 28-253): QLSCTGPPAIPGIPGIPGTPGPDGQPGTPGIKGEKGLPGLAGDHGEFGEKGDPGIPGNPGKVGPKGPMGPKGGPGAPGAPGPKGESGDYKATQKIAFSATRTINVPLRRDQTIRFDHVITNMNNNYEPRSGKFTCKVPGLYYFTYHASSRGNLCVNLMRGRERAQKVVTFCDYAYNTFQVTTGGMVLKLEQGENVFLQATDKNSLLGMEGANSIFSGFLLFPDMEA
Sequence of human C1q (P02747 29-245): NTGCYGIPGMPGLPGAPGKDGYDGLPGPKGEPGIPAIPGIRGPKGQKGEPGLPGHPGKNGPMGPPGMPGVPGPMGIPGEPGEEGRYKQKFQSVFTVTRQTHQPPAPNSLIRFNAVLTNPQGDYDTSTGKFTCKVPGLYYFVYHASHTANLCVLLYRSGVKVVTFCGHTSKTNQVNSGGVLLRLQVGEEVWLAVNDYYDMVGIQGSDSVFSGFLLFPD

Consider `N=C(N)c1cc2ccc(OC(=O)c3cccs3)cc2s1` [BCX-1470], for which the IC50 on factor D is 96 nM. Consider “rituximab: humanized anti-CD20 IgG1 Ab from Roche, control for ELISA-based binding studies”, for which the “binding to C1q” value with human C1q is listed as “did so in a dose-dependent manner”.

By IC50 is commonly meant the point on the concentration scale where inhibition reaches its midpoint.
